Results taken from ChEMBL document CHEMBL3826937, “Synthesis, 3D-QSAR analysis and biological evaluation of quinoxaline 1,4-di-N-oxide derivatives as antituberculosis agents” (Bioorg Med Chem Lett, 2016).
Converted amounts (≈) assume the structure as drawn.

Assays:
[1] = Selectivity index, ratio of CC50 for African green monkey Vero cells to MIC for Mycobacterium tuberculosis H37Rv ATCC 27294; format: toxicity, cell-based; conditions: read-out: Selectivity Index
[2] = test system: Mycobacterium tuberculosis; experiment: Antimycobacterial activity against Mycobacterium tuberculosis H37Rv ATCC 27294 incubated for 5 days by microplate alamar blue assay; format: functional; conditions: H37Rv ATCC 27294, 120 h
[3] = Cytotoxicity against African green monkey Vero cells assessed as reduction in cell viability after 72 hrs by MTT assay; format: cell-based; conditions: chlorocebus sabaeus

Q: Which results are given for `Cc1c(C(=O)CSc2nc3ccccc3[nH]2)[n+]([O-])c2ccccc2[n+]1[O-]`?
A: selectivity ratio [1]: 16; MIC [2]: 6.25 µg/mL (≈ 17.1 µM); CC50 at 72 h [3]: 100 µg/mL (≈ 273 µM)

Q: With `Cc1c(C(=O)CN2CCN(C)CC2)[n+]([O-])c2ccccc2[n+]1[O-]` as the compound, how does the MIC [2] read?
A: 50 µg/mL (≈ 158 µM)

Q: Which selectivity ratio [1] does the source give for `Cc1c(C(=O)CSc2nc3ccccc3o2)[n+]([O-])c2ccccc2[n+]1[O-]` here?
A: 16

Q: And the MIC [2]?
A: 3.13 µg/mL (≈ 8.52 µM)

Q: What about the CC50 at 72 h [3] of the same compound?
A: 50 µg/mL (≈ 136 µM)

Q: With `Cc1c(C(=O)CSc2nccs2)[n+]([O-])c2ccccc2[n+]1[O-]` as the compound, how does the selectivity ratio [1] read?
A: 16

Q: And the MIC [2]?
A: 3.13 µg/mL (≈ 9.39 µM)

Q: What about the CC50 at 72 h [3] of the same compound?
A: 50 µg/mL (≈ 150 µM)

Q: For `Cc1c(C(=O)CNc2nc3ccccc3[nH]2)[n+]([O-])c2ccccc2[n+]1[O-]`, which MIC [2] is on record?
A: 12.5 µg/mL (≈ 35.8 µM)

Q: With `Cc1c(C(=O)CN(C)c2ccccc2)[n+]([O-])c2ccccc2[n+]1[O-]` as the compound, how does the MIC [2] read?
A: 25 µg/mL (≈ 77.3 µM)

Q: Which selectivity ratio [1] does the source give for `COc1ccc(SCC(=O)c2c(C)[n+]([O-])c3ccccc3[n+]2[O-])cc1` here?
A: 64

Q: And the MIC [2]?
A: 0.78 µg/mL (≈ 2.19 µM)

Q: What about the CC50 at 72 h [3] of the same compound?
A: 50 µg/mL (≈ 140 µM)

Q: Which selectivity ratio [1] does the source give for `Cc1c(C(=O)CSCCNC(=O)c2ccc3ccccc3c2)[n+]([O-])c2ccccc2[n+]1[O-]` here?
A: > 16

Q: What about the MIC [2] of the same compound?
A: 6.25 µg/mL (≈ 14 µM)

Q: And the CC50 at 72 h [3]?
A: > 100 µg/mL

Q: With `Cc1c(C(=O)CSc2nc3ccccc3s2)[n+]([O-])c2ccccc2[n+]1[O-]` as the compound, how does the selectivity ratio [1] read?
A: 32

Q: And the MIC [2]?
A: 1.56 µg/mL (≈ 4.07 µM)

Q: What about the CC50 at 72 h [3] of the same compound?
A: 50 µg/mL (≈ 130 µM)

Q: With `Cc1c(C(=O)CN(C)c2ccc(F)cc2)[n+]([O-])c2ccccc2[n+]1[O-]` as the compound, how does the selectivity ratio [1] read?
A: > 16

Q: What about the MIC [2] of the same compound?
A: 6.25 µg/mL (≈ 18.3 µM)

Q: And the CC50 at 72 h [3]?
A: > 100 µg/mL

Q: Which MIC [2] does the source give for `Cc1c(C(=O)CSCCO)[n+]([O-])c2ccccc2[n+]1[O-]` here?
A: 50 µg/mL (≈ 170 µM)

Q: With `Cc1c(C(=O)CSCCNC(=O)[C@@H](N)Cc2c[nH]c3ccccc23)[n+]([O-])c2ccccc2[n+]1[O-]` as the compound, how does the selectivity ratio [1] read?
A: > 16

Q: What about the MIC [2] of the same compound?
A: 6.25 µg/mL (≈ 13 µM)

Q: What about the CC50 at 72 h [3] of the same compound?
A: > 100 µg/mL

Q: Which MIC [2] does the source give for `Cc1c(C(=O)CNc2nccs2)[n+]([O-])c2ccccc2[n+]1[O-]` here?
A: 50 µg/mL (≈ 158 µM)

Q: For `Cc1c(C(=O)CSCCNC(=O)c2cccs2)[n+]([O-])c2ccccc2[n+]1[O-]`, which selectivity ratio [1] is on record?
A: > 16

Q: And the MIC [2]?
A: 6.25 µg/mL (≈ 15.5 µM)

Q: And the CC50 at 72 h [3]?
A: > 100 µg/mL

Q: Which MIC [2] does the source give for `Cc1c(C(=O)CSCCNC(=O)[C@@H](N)C(C)C)[n+]([O-])c2ccccc2[n+]1[O-]` here?
A: 25 µg/mL (≈ 63.7 µM)

Q: With `Cc1c(C(=O)CSCCN)[n+]([O-])c2ccccc2[n+]1[O-]` as the compound, how does the MIC [2] read?
A: 50 µg/mL (≈ 170 µM)

Q: For `Cc1c(C(=O)CN(C)C2CCCCC2)[n+]([O-])c2ccccc2[n+]1[O-]`, which MIC [2] is on record?
A: 50 µg/mL (≈ 152 µM)

Q: For `Cc1ccc(N(C)CC(=O)c2c(C)[n+]([O-])c3ccccc3[n+]2[O-])cc1`, which MIC [2] is on record?
A: 25 µg/mL (≈ 74.1 µM)

Q: With `CC(=O)NCCSCC(=O)c1c(C)[n+]([O-])c2ccccc2[n+]1[O-]` as the compound, how does the MIC [2] read?
A: 50 µg/mL (≈ 149 µM)

Q: With `Cc1c(C(=O)CSc2nc[nH]n2)[n+]([O-])c2ccccc2[n+]1[O-]` as the compound, how does the selectivity ratio [1] read?
A: 128

Q: What about the MIC [2] of the same compound?
A: 0.39 µg/mL (≈ 1.23 µM)

Q: And the CC50 at 72 h [3]?
A: 50 µg/mL (≈ 158 µM)

Q: For `COc1cc(C(=O)NCCSCC(=O)c2c(C)[n+]([O-])c3ccccc3[n+]2[O-])cc(OC)c1OC`, which MIC [2] is on record?
A: 25 µg/mL (≈ 51.3 µM)

Q: For `Cc1c(C(=O)CSCCNC(=O)c2ccccc2)[n+]([O-])c2ccccc2[n+]1[O-]`, which selectivity ratio [1] is on record?
A: > 16

Q: What about the MIC [2] of the same compound?
A: 6.25 µg/mL (≈ 15.7 µM)

Q: And the CC50 at 72 h [3]?
A: > 100 µg/mL

Q: Which MIC [2] does the source give for `Cc1c(C(=O)CSCCNC(=O)[C@@H](N)Cc2ccc(O)cc2)[n+]([O-])c2ccccc2[n+]1[O-]` here?
A: 25 µg/mL (≈ 54.8 µM)

Q: For `Cc1c(C(=O)CN2CCCCC2)[n+]([O-])c2ccccc2[n+]1[O-]`, which MIC [2] is on record?
A: 25 µg/mL (≈ 83 µM)

Q: With `Cc1c(C(=O)CSc2ccccc2)[n+]([O-])c2ccccc2[n+]1[O-]` as the compound, how does the selectivity ratio [1] read?
A: 32

Q: What about the MIC [2] of the same compound?
A: 1.56 µg/mL (≈ 4.78 µM)

Q: And the CC50 at 72 h [3]?
A: 50 µg/mL (≈ 153 µM)

Q: With `Cc1c(C(=O)CSCCNC(=O)C2CCCCC2)[n+]([O-])c2ccccc2[n+]1[O-]` as the compound, how does the MIC [2] read?
A: 12.5 µg/mL (≈ 31 µM)

Q: Which results are given for `Cc1c(C(=O)CSCCNC(=O)c2ccncc2)[n+]([O-])c2ccccc2[n+]1[O-]`?
A: MIC [2]: 6.25 µg/mL (≈ 15.7 µM); CC50 at 72 h [3]: 50 µg/mL (≈ 125 µM)

Q: Which selectivity ratio [1] does the source give for `Cc1c(C(=O)CSCCNC(=O)c2ccc(F)cc2)[n+]([O-])c2ccccc2[n+]1[O-]` here?
A: > 128

Q: And the MIC [2]?
A: 1.56 µg/mL (≈ 3.76 µM)

Q: And the CC50 at 72 h [3]?
A: > 100 µg/mL

Q: For `Cc1ccc(SCC(=O)c2c(C)[n+]([O-])c3ccccc3[n+]2[O-])cc1`, which selectivity ratio [1] is on record?
A: 64

Q: What about the MIC [2] of the same compound?
A: 0.78 µg/mL (≈ 2.29 µM)

Q: And the CC50 at 72 h [3]?
A: 50 µg/mL (≈ 147 µM)

Q: Which MIC [2] does the source give for `CCN(CC)CC(=O)c1c(C)[n+]([O-])c2ccccc2[n+]1[O-]` here?
A: 50 µg/mL (≈ 173 µM)

Q: Which selectivity ratio [1] does the source give for `Cc1c(C(=O)CSc2ccc(F)cc2)[n+]([O-])c2ccccc2[n+]1[O-]` here?
A: 128

Q: And the MIC [2]?
A: 0.39 µg/mL (≈ 1.13 µM)

Q: And the CC50 at 72 h [3]?
A: 50 µg/mL (≈ 145 µM)

Q: Which MIC [2] does the source give for `Cc1c(C(=O)CN(C)Cc2ccccc2)[n+]([O-])c2ccccc2[n+]1[O-]` here?
A: 50 µg/mL (≈ 148 µM)

Q: Which MIC [2] does the source give for `NNC(=O)c1ccncc1` [ISONIAZID] here?
A: 0.2 µg/mL (≈ 1.46 µM)

Q: What does the source list for `COc1ccc(C(=O)NCCSCC(=O)c2c(C)[n+]([O-])c3ccccc3[n+]2[O-])cc1`?
A: selectivity ratio [1]: > 32; MIC [2]: 3.13 µg/mL (≈ 7.32 µM); CC50 at 72 h [3]: > 100 µg/mL
